Target: T1, CYP4A11 (Homo sapiens, UniProt Q02928)
T1 sequence (Q02928 5-519): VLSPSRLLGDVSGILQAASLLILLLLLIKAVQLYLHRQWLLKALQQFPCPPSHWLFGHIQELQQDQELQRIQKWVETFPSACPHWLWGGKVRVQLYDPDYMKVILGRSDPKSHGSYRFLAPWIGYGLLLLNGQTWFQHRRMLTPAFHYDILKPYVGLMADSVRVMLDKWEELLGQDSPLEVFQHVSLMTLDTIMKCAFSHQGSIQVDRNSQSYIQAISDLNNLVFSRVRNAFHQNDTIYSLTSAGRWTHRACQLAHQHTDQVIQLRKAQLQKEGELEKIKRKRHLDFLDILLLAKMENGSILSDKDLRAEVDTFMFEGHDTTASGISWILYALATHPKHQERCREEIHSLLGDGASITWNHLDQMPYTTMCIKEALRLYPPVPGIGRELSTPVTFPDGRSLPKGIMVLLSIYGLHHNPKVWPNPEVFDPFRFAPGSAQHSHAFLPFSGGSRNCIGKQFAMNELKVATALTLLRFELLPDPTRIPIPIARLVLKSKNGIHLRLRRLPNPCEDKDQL
Assay: MONACRA demethylation by recombinant CYP4A11 in Supersomes, high-throughput fluorimetric assay
Assay type: biochemical
Parameters: purchased Gentest (Huntsville, AL), now a part of Discovery Life Sciences lot 2402280; host or cells: insect cells, recombinant baculovirus
Conditions: Michaelis–Menten fit, ± = confidence interval P=0.05
Experimental: Based on these observations, we developed a high-throughput automated assay applicable for studying SSPs of MONACRA metabolism by microsomal P450 enzymes. In this procedure, the incubation mixtures containing an NADPH-generating system and various substrate concentrations are placed in a multiwell plate and preincubated at 30°C in a thermostated shaker. The reaction is started by adding microsomal suspension to the final concentration of 0.3–1 mg/ml of microsomal protein or 0.02–0.1 µM of recombinant P450 enzymes in Supersomes. Following the incubation for 20 min at 30°C, the reaction is quenched by adding trichloroacetic acid (final concentration […]). After supplementing the wells with Na-glycine buffer (pH 10.4, final concentration 2.1 M), the plates are subjected to scanning the fluorescence spectra with excitation at 375 nm. This assay, which is described in detail in Materials and Methods, allows reliable detection of the concentrations of HONACRA as low as 0.1 µM.
We used the high-throughput activity assay described above to probe MONACRA metabolism by 16 human microsomal P450 enzymes, namely CYP1A2, CYP2A6, CYP2B6, CYP2C8, CYP2C9, CYP2C19, CYP2D6, CYP2E1, CYP2J2, CYP3A4, CYP3A5, CYP4A11, CYP4F2, CYP4F3A, CYP4F3B, and CYP4F12. […]

Vmax: 66.8 ± 17.5 min⁻¹
Compound: COc1ccc2cc(C=CC(=O)O)ccc2c1 [MONACRA, 3-(6-methoxynaphthalen-2-yl)acrylic acid]
